In patent US20090118276A1, “THIENOPYRIMIDINES, THIENOPYRIDINES, AND PYRROLOPYRIMIDINES AS B-RAF INHIBITORS” (priority 2007, published 2009):
Like-named read-outs stand apart in the source and are kept apart here.

Biological target: T1, Flag/GST-tagged recombinant human B-Raf (Homo sapiens, UniProt P15056)
T1 construct: Flag; GST; made in house; host or cells: Sf9 insect cells (B-Raf); E. coli (MEK1-GST)
Assay: B-Raf Kinase to MEK1 ELISA
Type: biochemical
Method: B-Raf Kinase to MEK1 ELISA
B-Raf1 Kinase Assay Procedure: B-Raf-1 is used to phosphorylate GST-MEK1.
B-Raf Assay Stock Solutions:
1. Assay Dilution Buffer (ADB): 20 mM MOPS, pH 7.2, 25 mM β-glycerol phosphate, 5 mM EGTA, 1 mM sodium orthovanadate, 1 mM dithiothreitol, 0.01% Triton X-100.
2. Magnesium/ATP Cocktail: ADB solution (minus Triton X-100) plus 200 μM cold ATP and 40 mM magnesium chloride.
4. Active Kinase: Active B-Raf: used at 0.2 nM per assay point.
8. Anti pMEK Ab (Upstate)
9. Anti-rabbit Ab/Europium conjugate (Wallac)
1. Add 25 μl of ADB containing B-Raf and Mek per assay (i.e. per well of a 96 well plate)
2. Add 25 μl of 0.2 mM ATP and 40 mM magnesium chloride in Magnesium/ATP Cocktail.
3. Incubate for 45 minutes at RT with occasional shaking.
4. Transfer this mixture to an anti-GST Ab coated 96 well plate (Nunc Immunosorb plates coated o/n with a-GST. Plate freshly washed 3× with TBS-T before use.
5. Incubate o/n at 30° C. in cold room.
6. Wash 3× with TBST, add Anti-Phospho MEK1 (1:1000, dilution depends upon lot)
7. Incubate for 60 minutes at RT in a shaking incubator
8. Wash 3× with TBST, add Anti-rabbit Ab/Europium conjugate (Wallac) (1:500, dilution depends upon lot)
9. Incubate for 60 minutes at RT on a platform shaker.
10. Wash plate 3× with TBS-T
11. Add 100 μl of Wallac Delfia Enhancement Solution and shake for 10 minutes.
12. Read plates in Wallac Victor model Plate Reader.
13. Collect data analyze in Excel for single point and IC50 determinations.
The % inhibition was determined for each compound concentration.

[1] = phosphorylation of GST-MEK1 by B-Raf (0.2 nM), phospho-MEK1 antibody/Europium readout, compound concentrations from 1 μM to 3 nM or 0.1 μM to 300 pm in half log dilutions, read-out: IC50

T1 sequence (P15056 whole entry): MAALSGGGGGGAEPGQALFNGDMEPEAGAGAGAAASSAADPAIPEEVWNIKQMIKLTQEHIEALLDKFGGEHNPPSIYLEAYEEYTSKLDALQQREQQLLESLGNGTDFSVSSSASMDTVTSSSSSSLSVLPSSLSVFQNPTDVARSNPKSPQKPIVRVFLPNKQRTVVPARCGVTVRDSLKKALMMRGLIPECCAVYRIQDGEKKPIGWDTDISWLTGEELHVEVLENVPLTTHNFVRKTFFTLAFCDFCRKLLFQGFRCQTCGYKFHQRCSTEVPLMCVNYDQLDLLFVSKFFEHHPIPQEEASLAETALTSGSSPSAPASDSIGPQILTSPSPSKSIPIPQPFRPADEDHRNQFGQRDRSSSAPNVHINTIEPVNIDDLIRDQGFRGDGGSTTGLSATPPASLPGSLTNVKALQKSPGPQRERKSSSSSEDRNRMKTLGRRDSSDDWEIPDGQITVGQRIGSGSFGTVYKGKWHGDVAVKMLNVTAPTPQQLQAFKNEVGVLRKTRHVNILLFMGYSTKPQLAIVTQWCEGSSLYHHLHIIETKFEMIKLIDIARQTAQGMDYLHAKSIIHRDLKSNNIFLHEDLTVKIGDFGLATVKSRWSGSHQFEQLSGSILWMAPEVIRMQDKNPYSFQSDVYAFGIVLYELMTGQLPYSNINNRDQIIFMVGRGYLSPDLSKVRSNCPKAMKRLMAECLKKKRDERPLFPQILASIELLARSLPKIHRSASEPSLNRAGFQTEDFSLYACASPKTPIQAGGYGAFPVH

Row | SMILES | IC50 [1] [µM] | IC50 [µM]
1 | N#Cc1cnc2cc(-c3ccncc3)sc2c1-c1cccc(NC(=O)c2cccc(C(F)(F)F)c2)c1 [Compound 5, N-[3-(6-cyano-2-pyridin-4-ylthieno[3,2-b]pyridin-7-yl)phenyl]-3-(trifluoromethyl)benzamide] | 5.94 | 
2 | O=C(Nc1cccc(-c2ncnc3cc(-c4ccncc4)sc23)c1)c1cccc(C(F)(F)F)c1 [Compound 6, N-[3-(6-pyridin-4-ylthieno[3,2-d]pyrimidin-4-yl)phenyl]-3-(trifluoromethyl)benzamide] |  | 0.54
3 | COc1ccc(C(=O)Nc2cccc(-c3c(C#N)cnc4cc(-c5ccncc5)sc34)c2)cc1C(F)(F)F [Compound 7, N-[3-(6-cyano-2-pyridin-4-ylthieno[3,2-b]pyridin-7-yl)phenyl]-4-methoxy-3-(trifluoromethyl)benzamide] |  | 9.6
4 | COc1ccc(C(=O)Nc2cccc(-c3ncnc4sc(-c5ccncc5)cc34)c2)cc1C(F)(F)F [Compound 35, 4-methoxy-N-[3-(6-pyridin-4-ylthieno[2,3-d]pyrimidin-4-yl)phenyl]-3-(trifluoromethyl)benzamide] |  | 3.46
5 | O=C(Nc1cccc(-c2ncnc3sc(-c4ccncc4)cc23)c1)Nc1ccc(F)c(C(F)(F)F)c1 [Compound 36, N-[4-fluoro-3-(trifluoromethyl)phenyl]-N′-[3-(6-pyridin-4-ylthieno[2,3-d]pyrimidin-4-yl)phenyl]urea] |  | 2.34
6 | Cc1ccc(C(=O)Nc2cccc(-c3ncnc4sc(-c5ccncc5)cc34)c2)cc1C(F)(F)F [Compound 37, 4-methyl-N-[3-(6-pyridin-4-ylthieno[2,3-d]pyrimidin-4-yl)phenyl]-3-(trifluoromethyl)benzamide] |  | 2.61
7 | O=C(Nc1cccc(-c2ncnc3sc(-c4ccncc4)cc23)c1)c1ccc(F)c(C(F)(F)F)c1 [Compound 38, 4-fluoro-N-[3-(6-pyridin-4-ylthieno[2,3-d]pyrimidin-4-yl)phenyl]-3-(trifluoromethyl)benzamide] |  | 0.3
8 | O=C(Nc1cccc(-c2ncnc3sc(-c4ccncc4)cc23)c1)Nc1ccc(Cl)c(C(F)(F)F)c1 [Compound 39, N-[4-chloro-3-(trifluoromethyl)phenyl]-N′-[3-(6-pyridin-4-ylthieno[2,3-d]pyrimidin-4-yl)phenyl]urea] |  | 1.4
9 | O=C(Nc1cccc(-c2ncnc3sc(-c4ccncc4)cc23)c1)c1ccc(Cl)c(C(F)(F)F)c1 [Compound 40, 4-chloro-N-[3-(6-pyridin-4-ylthieno[2,3-d]pyrimidin-4-yl)phenyl]-3-(trifluoromethyl)benzamide] |  | 3.53
10 | O=C(Nc1cccc(-c2ncnc3sc(-c4ccncc4)cc23)c1)Nc1cccc(C(F)(F)F)c1 [Compound 41, N-[3-(6-pyridin-4-ylthieno[2,3-d]pyrimidin-4-yl)phenyl]-N′-[3-(trifluoromethyl)phenyl]urea] |  | 1.79
11 | O=C(Nc1cccc(-c2ncnc3sc(-c4ccncc4)cc23)c1)c1cccc(C(F)(F)F)c1 [Compound 42, N-[3-(6-pyridin-4-ylthieno[2,3-d]pyrimidin-4-yl)phenyl]-3-(trifluoromethyl)benzamide] |  | 0.08
12 | Cc1ccc(NC(=O)Nc2cccc(-c3ncnc4sc(-c5ccncc5)cc34)c2)cc1C [Compound 44, N-(3,4-dimethylphenyl)-N′-[3-(6-pyridin-4-ylthieno[2,3-d]pyrimidin-4-yl)phenyl]urea] |  | 1.53
13 | O=C(Nc1cccc(Cl)c1)Nc1cccc(-c2ncnc3sc(-c4ccncc4)cc23)c1 [Compound 45, N-(3-chlorophenyl)-N′-[3-(6-pyridin-4-ylthieno[2,3-d]pyrimidin-4-yl)phenyl]urea] |  | 8.75
14 | O=C(Nc1ccc(Cl)cc1)Nc1cccc(-c2ncnc3sc(-c4ccncc4)cc23)c1 [Compound 46, N-(4-chlorophenyl)-N′-[3-(6-pyridin-4-ylthieno[2,3-d]pyrimidin-4-yl)phenyl]urea] |  | 1.23
15 | O=C(Nc1cccc(-c2ncnc3sc(C4=CCNCC4)cc23)c1)c1cccc(C(F)(F)F)c1 [Compound 67, N-{3-[6-(1,2,3,6-tetrahydropyridin-4-yl)thieno[2,3-d]pyrimidin-4-yl]phenyl}-3-(trifluoromethyl)benzamide] | 2.5 | 
16 | CC(=O)Nc1ccc(-c2cc3c(-c4cccc(NC(=O)c5cccc(C(F)(F)F)c5)c4)ncnc3s2)cc1 [Compound 68, N-(3-{6-[4-(acetylamino)phenyl]thieno[2,3-d]pyrimidin-4-yl}phenyl)-3-(trifluoromethyl)benzamide] | 0.872 | 
17 | CC(=O)Nc1cccc(-c2cc3c(-c4cccc(NC(=O)c5cccc(C(F)(F)F)c5)c4)ncnc3s2)c1 [Compound 72, N-(3-{6-[3-(acetylamino)phenyl]thieno[2,3-d]pyrimidin-4-yl}phenyl)-3-(trifluoromethyl)benzamide] | 2.07 | 
18 | O=C(Nc1cccc(-c2ncnc3sc(-c4cccnc4)cc23)c1)c1cccc(C(F)(F)F)c1 [Compound 75, N-[3-(6-pyridin-3-ylthieno[2,3-d]pyrimidin-4-yl)phenyl]-3-(trifluoromethyl)benzamide] | 1.11 | 
19 | N#Cc1ccc(-c2cc3c(-c4cccc(NC(=O)c5cccc(C(F)(F)F)c5)c4)ncnc3s2)cc1 [Compound 77, N-{3-[6-(4-cyanophenyl)thieno[2,3-d]pyrimidin-4-yl]phenyl}-3-(trifluoromethyl)benzamide] | 1.23 | 
20 | O=C(Nc1cccc(-c2ncnc3sc(-c4ccc(Cl)cc4)cc23)c1)c1cccc(C(F)(F)F)c1 [Compound 79, N-{3-[6-(4-chlorophenyl)thieno[2,3-d]pyrimidin-4-yl]phenyl}-3-(trifluoromethyl)benzamide] | 4.67 | 

Continued, values first:

Row | IC50 [1] [µM] | IC50 [µM] | SMILES
21 | 2.73 |  | CC(=O)c1ccc(-c2cc3c(-c4cccc(NC(=O)c5cccc(C(F)(F)F)c5)c4)ncnc3s2)cc1 [Compound 80, N-{3-[6-(4-acetylphenyl)thieno[2,3-d]pyrimidin-4-yl]phenyl}-3-(trifluoromethyl)benzamide]
22 | 3.2 |  | CC(=O)c1cccc(-c2cc3c(-c4cccc(NC(=O)c5cccc(C(F)(F)F)c5)c4)ncnc3s2)c1 [Compound 81, N-{3-[6-(3-acetylphenyl)thieno[2,3-d]pyrimidin-4-yl]phenyl}-3-(trifluoromethyl)benzamide]
23 | 0.73 |  | CNC(=O)c1cc(-c2cc3c(-c4cccc(NC(=O)c5cccc(C(F)(F)F)c5)c4)ncnc3s2)ccn1 [Compound 85, N-methyl-4-[4-(3-{[3-(trifluoromethyl)benzoyl]amino}phenyl)thieno[2,3-d]pyrimidin-6-yl]pyridine-2-carboxamide]
24 |  | 0.144 | O=C(Nc1cccc(-c2ncnc3sc(-c4ccnc(NCCN5CCOCC5)c4)cc23)c1)c1cccc(C(F)(F)F)c1 [Compound 86, N-[3-(6-{2-[(2-morpholin-4-ylethyl)amino]pyridin-4-yl}thieno[2,3-d]pyrimidin-4-yl)phenyl]-3-(trifluoromethyl)benzamide]
25 | 0.158 |  | O=C(Nc1cccc(-c2ncnc3sc(-c4ccnc(NCCCn5ccnc5)c4)cc23)c1)c1cccc(C(F)(F)F)c1 [Compound 87, N-{3-[6-(2-{[3-(1H-imidazol-1-yl)propyl]amino}pyridin-4-yl)thieno[2,3-d]pyrimidin-4-yl]phenyl}-3-(trifluoromethyl)benzamide]
26 | 5.98 |  | N#Cc1cc2c(-c3cccc(NC(=O)c4cccc(C(F)(F)F)c4)c3)ncnc2s1 [Compound 88, N-[3-(6-cyanothieno[2,3-d]pyrimidin-4-yl)phenyl]-3-(trifluoromethyl)benzamide]
27 | 2.72 |  | NC(=O)c1cc2c(-c3cccc(NC(=O)c4cccc(C(F)(F)F)c4)c3)ncnc2s1 [Compound 89, 4-(3-{[3-(trifluoromethyl)benzoyl]amino}phenyl)thieno[2,3-d]pyrimidine-6-carboxamide]
28 |  | 2.47 | N#Cc1ccccc1Cn1ccc2c(-c3cccc(NC(=O)c4cccc(C(F)(F)F)c4)c3)ncnc21 [Compound 94, N-{3-[7-(2-cyanobenzyl)-7H-pyrrolo[2,3-d]pyrimidin-4-yl]phenyl}-3-(trifluoromethyl)benzamide]
29 |  | 1.02 | O=C(Nc1cccc(-c2ncnc3c2ccn3Cc2ccncc2)c1)c1cccc(C(F)(F)F)c1 [Compound 98, N-{3-[7-(pyridin-4-ylmethyl)-7H-pyrrolo[2,3-d]pyrimidin-4-yl]phenyl}-3-(trifluoromethyl)benzamide]
30 | 0.0345 |  | O=C(Nc1cccc(-c2ncnc3[nH]c(-c4ccncc4)cc23)c1)c1cccc(C(F)(F)F)c1 [Compound 101, N-[3-(6-pyridin-4-yl-7H-pyrrolo[2,3-d]pyrimidin-4-yl)phenyl]-3-(trifluoromethyl)benzamide]
31 |  | 5.71 | COc1ccc(-n2ccc3c(-c4cccc(NC(=O)c5cccc(C(F)(F)F)c5)c4)ncnc32)cc1 [Compound 103, N-{3-[7-(4-methoxyphenyl)-7H-pyrrolo[2,3-d]pyrimidin-4-yl]phenyl}-3-(trifluoromethyl)benzamide]
